Experiments:
virus H1N1 A/Weiss/43 = test: microbe, parasite or virus in culture; assay type: cell-based; conditions: 120 h; inhibition of CPE of influenza virus A/Weiss/43(H1N1) in MDCK cells, 5 days, CCK-8
in vivo = conditions: SD, rat
Experimental: Pharmacokinetic characteristics of the compounds of the invention in SD rats were evaluated. The compounds disclosed herein were administered in form of a saline solution containing 5% DMSO, 5% Kolliphor HS 15 and 90% Saline. For intravenous administration (iv), the animals were administered with a dose of 1 mg/kg, and blood samples (0.3 mL) were collected at the time points of 0.083, 0.25, 0.5, 1.0, 2.0, 5.0, 7.0 and 24 h after drug administration, then each blood sample was processed to separate plasma by centrifugation at 3000 rpm or 4000 rpm for 10 minutes. For oral administration (po), the animals were administered with a dose of 5 mg/kg, and blood samples (0.3 mL) were collected at the time points of 0.25, 0.5, 1.0, 2.0, 5.0, 7.0 and 24 h after drug administration, then each blood sample was processed to separate plasma by centrifugation at 3000 rpm or 4000 rpm for 10 minutes. Plasma samples were collected and stored at −20° C. or −70° C. until LC/MS/MS analysis.

SMILES | EC50 (virus H1N1 A/Weiss/43) | also measured
O=C(O)C1C2CCC(CC2)C1Nc1cc(C#Cc2ccccc2)nc(-c2c[nH]c3ncncc23)n1 (racemic) [Example 12, (+/−)-trans-3-((6-(phenylethynyl)-2-(7H-pyrrolo[2,3-d]pyrimidin-5-yl)pyrimidin-4-yl)amino)bicyclo[2.2.2]octane-2-carboxylic acid] | 7.24 nM | –
O=C(O)C1C2CCC(CC2)C1Nc1nc(-c2c[nH]c3ncncc23)nc(-c2ccccc2)c1F (racemic) [Example 13, (+/−)-trans-3-((5-fluoro-6-phenyl-2-(7H-pyrrolo[2,3-d]pyrimidin-5-yl)pyrimidin-4-yl)amino)bicyclo[2.2.2]octane-2-carboxylic acid] | 8.68 nM | –
O=C(O)C1C2CCC(CC2)C1Nc1cc(-c2ccoc2)nc(-c2c[nH]c3ncncc23)n1 (racemic) [Example 9, (+/−)-trans-3-((6-(furan-3-yl)-2-(7H-pyrrolo[2,3-d]pyrimidin-5-yl)pyrimidin-4-yl)amino)bicyclo[2.2.2]octane-2-carboxylic acid] | 9.57 nM | –
CC(C)n1ccc2c(NC3C4CCC(CC4)C3C(=O)O)nc(-c3c[nH]c4ncncc34)nc21 (racemic) [Example 4, (+/−)-trans-3-((7-isopropyl-7H,7′H-[2,5′-bipyrrolo[2,3-d]pyrimidin]-4-yl)amino) bicyclo[2.2.2]octane-2-carboxylic acid] | 6.56 nM | –
O=C(O)C1C2CCC(CC2)C1Nc1nc(-c2c[nH]c3ncncc23)ncc1F (stereo not shown) [Control compound A, reference compound] | > 100000 nM | –
O=C(O)C1C2CCC(CC2)C1Nc1nc(-c2c[nH]c3ncncc23)nc2sccc12 (racemic) [Example 20, (+/−)-trans-3-((2-(7H-pyrrolo[2,3-d]pyrimidin-5-yl)thieno[2,3-d]pyrimidin-4-yl)amino)bicyclo[2.2.2]octane-2-carboxylic acid] | 19.2 nM | –
Cn1ccc2c(NC3C4CCC(CC4)C3C(=O)O)nc(-c3c[nH]c4ncncc34)nc21 (racemic) [Example 3, (+/−)-trans-3-((7-methyl-7H,7′H-[2,5′-bipyrrolo[2,3-d]pyrimidin]-4-yl)amino)bicyclo[2.2.2]octane-2-carboxylic acid] | 9.41 nM | AUC(0-inf) (in vivo; iv, 1 mg/kg): 4320 ng·h/mL; AUC(0-t) (in vivo; iv, 1 mg/kg): 4280 ng·h/mL; clearance (in vivo; iv, 1 mg/kg): 9.8 mL/min/kg; AUC(0-inf) (in vivo; po, 5 mg/kg): 15700 ng·h/mL; AUC(0-t) (in vivo; po, 5 mg/kg): 15600 ng·h/mL
O=C(O)C1C2CCC(CC2)C1Nc1nc(-c2c[nH]c3ncncc23)nc2ccccc12 (racemic) [Example 18, (+/−)-trans-3-((2-(7H-pyrrolo[2,3-d]pyrimidin-5-yl)quinazolin-4-yl)amino) bicyclo[2.2.2]octane-2-carboxylic acid] | 17.5 nM | –
O=C(O)C1C2CCC(CC2)C1Nc1cc(-c2cc3ccccc3o2)nc(-c2c[nH]c3ncncc23)n1 (racemic) [Example 11, (+/−)-trans-3-((6-(benzofuran-2-yl)-2-(7H-pyrrolo[2,3-d]pyrimidin-5-yl)pyrimidin-4-yl)amino)bicyclo[2.2.2]octane-2-carboxylic acid] | 14.4 nM | –
O=C(O)C1C2CCC(CC2)C1Nc1cc(-c2ccco2)nc(-c2c[nH]c3ncncc23)n1 (racemic) [Example 2, (+/−)-trans-3-((6-(furan-2-yl)-2-(7H-pyrrolo[2,3-d]pyrimidin-5-yl)pyrimidin-4-yl)amino)bicyclo[2.2.2]octane-2-carboxylic acid] | 5.19 nM | AUC(0-inf) (in vivo; iv, 1 mg/kg): 4020 ng·h/mL; AUC(0-t) (in vivo; iv, 1 mg/kg): 3190 ng·h/mL; clearance (in vivo; iv, 1 mg/kg): 10.7 mL/min/kg; AUC(0-inf) (in vivo; po, 5 mg/kg): 12900 ng·h/mL; AUC(0-t) (in vivo; po, 5 mg/kg): 12700 ng·h/mL
O=C(O)C1C2CCC(CC2)C1Nc1nc(-c2c[nH]c3ncncc23)nc(-c2ccco2)c1F (racemic) [Example 7, (+/−)-trans-3-((5-fluoro-6-(furan-2-yl)-2-(7H-pyrrolo[2,3-d]pyrimidin-5-yl)pyrimidin-4-yl)amino)bicyclo[2.2.2]octane-2-carboxylic acid] | 4.02 nM | –
Cn1cc(-c2cc(NC3C4CCC(CC4)C3C(=O)O)nc(-c3c[nH]c4ncncc34)n2)cn1 (racemic) [Example 14, (+/−)-trans-3-((6-(1-methyl-1H-pyrazol-4-yl)-2-(7H-pyrrolo[2,3-d]pyrimidin-5-yl)pyrimidin-4-yl)amino)bicyclo[2.2.2]octane-2-carboxylic acid] | 6.32 nM | –

— patent publication US10927118B2, “Inhibitors of influenza virus replication and uses thereof” (SUNSHINE LAKE PHARMA CO., LTD., priority 2017, dated 2021)
